In patent US20020055470A1, “Circumvention of human tumor drug resistance” (CITY OF HOPE, priority 1987, published 2002):
Where two headings read alike, the source gives them in different places.

Assays:
Assay type in all cases: cell-based, human
[1] = tested on: CEMMTX; test: Cytotoxicity by continuous exposure in CEM cells
Procedure: CEM cells were made 15.8-fold resistant to methotrexate (MTX) by weekly (2 hr) pulses and cloned in soft agar. The optimal growth requirements for the CEMS/S and CEM/MTX for folinic acid cells were 2 nM and 10 nM. If the cells were grown in higher concentrations of folinic acid (10^−7 M), both cell lines were correspondingly more resistant to MTX. In contrast, fluoropyrimidine cytotoxicity was enhanced in both cell lines with increasing concentrations of folinic acid from 10^−7 M to 10^−6 M. At concentrations of folinic acid that are not optimal for cell growth, both CEM cell lines are hypersensitive to fluoropyrimidines. In addition, CEM/MTX cells are more hypersensitive to fluoropyrimidines than CEM/S cells at (10^−8 M) folinic acid or lower concentrations.
(§1) There was an increase in DHFR enzyme activity (11.07-fold) due to an eight-fold increase in DHFR gene amplification and expression in CEM/MTX cells. There was also a corresponding 2-fold increase in thymidine kinase (TK) enzyme activity and TK gene expression in CEM/MTX cells. […] CEM cells untreated with nucleoside analog were the controls (100%). The experiment was performed three separate times in duplicate.

[2] = tested on: A2780S; test: Inhibition of cell growth (cells counted on Coulter Counter after six days)
Procedure: The experiment was conducted in triplicate in the manner described with respect to Table I.
A2780 cells were well-plated (35 mm disnes) and 24 hours later the cells were treated with cisplatin for one hour, washed out and then treated with 6 concentrations of from 1 μM to 100 μM increased in equal increments of a nucleoside analog in saline. Cells were then washed and incubated for six days. The cells were counted on a Coulter Counter and the experiment was done in triplicate.
(§2) Table VI includes EC50 data further exemplifying the invention. The data reported by Table VI was obtained by substantially the same procedure as that described with respect to Table III. In Table VI, “(C)” indicates continuous exposure, “(1 h)” and “(2 h)” indicate exposure for 1 hour and 2 hours; “HU” indicates hydroxyurea.

[3] = tested on: A2780DDP; test: as above
Procedure: The experiment was conducted in triplicate in the manner described with respect to Table I. […]
as §2

[4] = tested on: HCT8DDP; test: as above; conditions: HCT8-DDP; (C) continuous exposure; read-out: EC50
Procedure: as §2

[5] = tested on: HCT8S; test: as above; conditions: (C) continuous exposure, read-out: EC50
Procedure: as §2

[6] = tested on: HCF7S; test: Inhibition of cell growth, Table VI; conditions: (C) continuous exposure
[7] = tested on: HCF-7 DDP; test: Inhibition of cell growth, Table VI; conditions: HCF-7 DDP; (C) continuous exposure
Procedure: as §2

[8] = tested on: K562-araC; test: Inhibition of cell growth, Table VI; conditions: K562-araC; (C) continuous exposure
Procedure: as §2

[9] = tested on: K562S; test: Inhibition of cell growth, Table VI; conditions: (C) continuous exposure
Procedure: as §2

[10] = tested on: K562-DDP; test: Inhibition of cell growth, Table VI; conditions: K562-DDP; (C) continuous exposure
[11] = tested on: K562-VP16; test: Inhibition of cell growth, Table VI; conditions: (C) continuous exposure
[12] = tested on: CEMS; test: Cytotoxicity by continuous exposure in CEM cells
Procedure: as §1

[13] = tested on: CEMDDP; test: Cytotoxicity by continuous exposure in CEM cells
[14] = tested on: A2780S; test: Dual labeled (14C/3H) DNA synthesis and degradation in response to cisplatin; conditions: for 3H-AZT/DNA A2780S: cisplatin 20 μM
Procedure: (§3) A dual labeled (^14C/^3H) experiment was designed to measure simultaneously DNA synthesis and degradation in response to cisplatin. […] A2780S cells respond to cisplatin with a modest degradation (10%) of (^14C) DNA over 3 hrs. In contrast, A2780DDP degradation 40.5% of the (^14C) DNA in 3 hrs. […] Transplatin at equimolar concentrations (20 μM) had no influence on DNA synthesis or degradation in A2780 cells.

[15] = tested on: A2780DDP; test: Dual labeled (14C/3H) DNA synthesis and degradation in response to cisplatin; incorporation of labelled nucleoside analogs; conditions: for Incorporation of labelled nucleoside analog into macromolecules: A2780DDP; for 3H-AZT/DNA A2780DDP: cisplatin 20 μM
Excerpt: A dual labeled (^14C/^3H) experiment was designed to measure simultaneously DNA synthesis and degradation in response to cisplatin.

[16] = tested on: A2780 cells; test: Dual labeled (14C/3H) DNA synthesis and degradation; conditions: 20 μM
Procedure: as §3

For `CN(Cc1cnc2nc(N)nc(N)c2n1)c1ccc(C(=O)N[C@@H](CCC(=O)O)C(=O)O)cc1` [methotrexate], the “fold resistance of CEM/MTX cells” value ([1]; CEM cells made resistant by weekly (2 hr) pulses) was 15.8 fold.

`Cc1cn([C@H]2C[C@H](N=[N+]=[N-])[C@@H](CO)O2)c(=O)[nH]c1=O` [AZT, 3′ azido-2′, 3′ dideoxythymidine] showed an EC50 ([2]; A2780S, (C) continuous exposure, read-out: EC50) of 10 µM, an EC50 ([2]; continuous exposure, proliferation during 6 days, mean + SD, read-out: EC50 A2780S) of 10 µM and an EC50 ([3]; A2780 DDP, (C) continuous exposure, read-out: EC50) of 510 µM. The EC50 ([3]; continuous exposure, proliferation during 6 days, mean + SD, read-out: EC50 A2780DDP) was 510 µM, the EC50 [4] was 11 µM and the EC50 [5] was 5.5 µM. It also gave an EC50 [6] of 65 µM, an EC50 [7] of 10 µM and an EC50 [8] of 70 µM. For the same compound, the EC50 [9] was 125 µM, the EC50 [10] was 150 µM and the EC50 [11] was 200 µM. For the same compound, the cytotoxicity ([12]; CEM/S cells, continuous exposure up to 160 μM) was “minimal cytotoxicity”, the EC50 ([12]; CEMS, continuous exposure) was “N.E.**” and the EC50 [13] was “N.E.**”. For the same compound, the EC50 ([1]; CEM/MTX cells, continuous exposure (1-160 μM)) was 25 µM, the “increased incorporation of (3H) AZT into TCA material” value ([14]; A2780S, in response to cisplatin 20 μM) was 18.8% and the “3H-AZT/DNA A2780S” value ([14]; treatment time 0 min) was 7.79. The “3H-AZT/DNA A2780S” value ([14]; treatment time 45 min) was 6.27, the “3H-AZT/DNA A2780S” value ([14]; treatment time 90 min) was 7.23 and the “3H-AZT/DNA A2780S” value ([14]; treatment time 180 min) was 9.25. For the same compound, the “Incorporation of labelled nucleoside analog into macromolecules” value ([15]; 0 min after cisplatin (20 μM) treatment) was 26.96, the “Incorporation of labelled nucleoside analog into macromolecules” value ([15]; 45 min after cisplatin (20 μM) treatment) was 31.62 and the “Incorporation of labelled nucleoside analog into macromolecules” value ([15]; 90 min after cisplatin (20 μM) treatment) was 32.31. The “Incorporation of labelled nucleoside analog into macromolecules” value ([15]; 180 min after cisplatin (20 μM) treatment) was 37.96, the “3H-AZT/DNA A2780DDP” value ([15]; treatment time 0 min) was 26.96 and the “3H-AZT/DNA A2780DDP” value ([15]; treatment time 45 min) was 31.62. For the same compound, the “3H-AZT/DNA A2780DDP” value ([15]; treatment time 90 min) was 32.31 and the “3H-AZT/DNA A2780DDP” value ([15]; treatment time 180 min) was 37.96.

With `N.N.[Cl][Pt+2][Cl]` [Transplatin] the “influence on DNA synthesis or degradation” value [16] was “no influence”.
